In ChEMBL document CHEMBL1130664, “Syntheses and antitumor activity of cis-restricted combretastatins: 5-membered heterocyclic analogues” (Bioorg Med Chem Lett, 1998):
pIC50: −log10 of the molar value.

How the values were obtained:
Colon 26 [1] = assay: In vitro cytotoxicity against colon 26 adenocarcinoma cell line was evaluated.; assay type: functional, cell-based; conditions: Mus musculus
Tubulin = Tubulin (Bos taurus, UniProt Q6B856+Q862L2+Q862F3); assay: Tubulin polymerization inhibitory activity using bovine brain tubulin; assay type: functional
Colon 26 [2] = assay: […] activity evaluated as tumor suppression against colon 26 murine tumor model at a dose 40 mg/kg after intravenous administration; assay type: functional, Mus musculus
Colon 26 [3] = assay: […] activity evaluated as tumor suppression against colon 26 murine tumor model at a dose 20 mg/kg after intravenous administration; assay type: functional, Mus musculus
Colon 26 [4] = assay: […] activity evaluated as tumor suppression against colon 26 murine tumor model at a dose 5 mg/kg after intravenous administration; assay type: functional, organism-based; parameters: dose 5 mg/kg; conditions: Mus musculus
Colon 26 [5] = assay: […] activity evaluated as tumor suppression against colon 26 murine tumor model at a dose 160 mg/kg after intravenous administration; assay type: functional, Mus musculus
Colon 26 [6] = assay: […] activity evaluated as tumor suppression against colon 26 murine tumor model at a dose 80 mg/kg after intravenous administration; assay type: functional, Mus musculus
Colon 26 [7] = assay: […] activity evaluated as tumor suppression against colon 26 murine tumor model at a dose 160 mg/kg after subcutaneous administration; assay type: functional, Mus musculus

Row | Compound | pIC50 (Colon 26 [1]) | IC50 (Tubulin) [nM] | further results
1 | COc1ccc(-c2sc(N)nc2-c2cc(OC)c(OC)c(OC)c2)cc1N | 7.24 | 1000 | IR (Colon 26 [2]): 75%
2 | COc1ccc(-c2nnc(O)n2-c2cc(OC)c(OC)c(OC)c2)cc1N | < 5.52 | > 10000 | 
3 | COc1ccc(-c2sc(C)nc2-c2cc(OC)c(OC)c(OC)c2)cc1N | 5.69 | 2000 | IR (Colon 26 [2]): 24%
4 | COc1ccc(-c2c[nH]nc2-c2cc(OC)c(OC)c(OC)c2)cc1N | 8.08 | 3000 | IR (Colon 26 [3]): 0%
5 | COc1ccc(/C=C\c2cc(OC)c(OC)c(OC)c2)cc1N.Cl | 8.55 |  | IR (Colon 26 [2]): 73%
6 | COc1ccc(-c2nnc(N)n2-c2cc(OC)c(OC)c(OC)c2)cc1N | < 5.52 | > 10000 | 
7 | CISPLATIN |  |  | IR (Colon 26 [4]): 64%
8 | COc1ccc(-c2nncn2-c2cc(OC)c(OC)c(OC)c2)cc1N | 6.08 | 4000 | IR (Colon 26 [5]): 47%
9 | COc1ccc(-c2c([Si](C)(C)C)n[nH]c2-c2cc(OC)c(OC)c(OC)c2)cc1N | < 5.52 | > 10000 | 
10 | COc1ccc(-c2nnc(C)n2-c2cc(OC)c(OC)c(OC)c2)cc1N | < 5.52 | > 10000 | 
11 | COc1ccc(-c2sc(NN)nc2-c2cc(OC)c(OC)c(OC)c2)cc1N | 7.68 | 3000 | IR (Colon 26 [6]): 55%
12 | COc1ccc(-c2nnnn2-c2cc(OC)c(OC)c(OC)c2)cc1N | 8.14 | 2000 | IR (Colon 26 [7]): 89%
13 | COc1ccc(-c2scnc2-c2cc(OC)c(OC)c(OC)c2)cc1N | 7.84 | 3000 | IR (Colon 26 [5]): 66%
